Test results from the NIST ThermoML archive (doi:10.1021/je1012789).

Assay: mn = molality of the nth substance listed, in mol/kg
Conditions: 101 kPa, Liquid

O=[N+]([O-])[O-].[K+] [potassium nitrate] + O
Conditions	mass density [kg/m3]	speed of sound [m/s]	viscosity [mPa·s]
293.15 K, m1 = 0.2	1010.62	1490.7	0.98
293.15 K, m1 = 0.3	1016.69	1493.5	0.977
293.15 K, m1 = 0.4	1022.68	1497.4	0.973
293.15 K, m1 = 0.5	1028.6	1501	0.97
293.15 K, m1 = 0.6	1034.61	1504.4	0.967
293.15 K, m1 = 0.7	1040.37	1507.6	0.963
298.15 K, m1 = 0.2	1009.41	1504	0.871
298.15 K, m1 = 0.3	1015.47	1507	0.869
298.15 K, m1 = 0.4	1021.25	1510.1	0.867
298.15 K, m1 = 0.5	1027.13	1513.4	0.862
298.15 K, m1 = 0.6	1032.84	1517	0.862
298.15 K, m1 = 0.7	1038.56	1520	0.859
303.15 K, m1 = 0.2	1007.8	1515.6	0.778
303.15 K, m1 = 0.3	1013.82	1518.7	0.776
303.15 K, m1 = 0.4	1019.62	1522	0.775
303.15 K, m1 = 0.5	1025.4	1524.7	0.774
303.15 K, m1 = 0.6	1031.2	1528.4	0.773
303.15 K, m1 = 0.7	1036.79	1530.9	0.772
308.15 K, m1 = 0.2	1006.09	1526	0.672
308.15 K, m1 = 0.3	1011.97	1528.8	0.67
308.15 K, m1 = 0.4	1017.79	1531.4	0.669
308.15 K, m1 = 0.5	1023.58	1534.3	0.678
308.15 K, m1 = 0.6	1029.21	1536.8	0.666
308.15 K, m1 = 0.7	1034.87	1539.4	0.665
313.15 K, m1 = 0.2	1004.28	1534.6	0.595
313.15 K, m1 = 0.3	1009.98	1537.5	0.593
313.15 K, m1 = 0.4	1015.89	1539.7	0.585
313.15 K, m1 = 0.5	1021.56	1542.5	0.577
313.15 K, m1 = 0.6	1027.23	1544.8	0.569
313.15 K, m1 = 0.7	1032.76	1547.7	0.563
